Data: patent US11072625B2 (GLYCOMIMETICS, INC., priority 2016, dated 2021)

Target: T1, recombinant human E-selectin/CD63E Fc Chimera (Homo sapiens, UniProt P16581)
T1 construct: purchased R & D systems
Test: E-selectin activity, analysis by SPR (Biacore X100)
Type: binding
Details: Biacore X100, CM5 chip, E-selectin Fc chimera captured on anti-human IgG (Fc) antibody
Procedure: Surface Plasmon Resonance (SPR) measurements were performed on a Biacore X100 instrument (GE Healthcare). A CM5 sensor chip (GE Healthcare) was used for the interaction between E-selectin and GMI compound. Anti-human IgG (Fc) antibody (GE Healthcare) was immobilized onto the chip by amine coupling according to the manufacturer's instructions. In brief, after a 7-min injection (flow rate of 5 μl/min) of 1:1 mixture of N-ethyl-N′-(3-dimethylaminopropyl) carbodiimide hydrochloride and N-hydroxysuccinimide, anti-human IgG (Fc) antibody (25 μg/ml in 10 mM sodium acetate buffer, pH 5.0) was injected using a 6-min injection at 5 μl min. Remaining activated groups were blocked by injecting 1 M ethanolamine/HCl, pH 8.5. The recombinant human E-selectin/CD63E Fc Chimera (50 μg/ml) (R & D systems) was injected into the experimental cell until 6000-7000 RU was captured onto the antibody surface. No recombinant human E-selectin/CD63E was injected into the control cell. Increasing concentrations of GMI compound samples were injected at 30 μl/min into both flow cells and all sensorgrams were recorded against the control. Regeneration of the anti-human IgG (Fc) surface was achieved by injecting 3M magnesium chloride, followed by 50 mM sodium hydroxide. Data were analyzed using Biacore X100 evaluation/BIA evaluation 4.1.1 software (GE Healthcare) and Graphad prism 6 software.

T1 sequence (P16581 with tags, fused parts or gaps limits assumed): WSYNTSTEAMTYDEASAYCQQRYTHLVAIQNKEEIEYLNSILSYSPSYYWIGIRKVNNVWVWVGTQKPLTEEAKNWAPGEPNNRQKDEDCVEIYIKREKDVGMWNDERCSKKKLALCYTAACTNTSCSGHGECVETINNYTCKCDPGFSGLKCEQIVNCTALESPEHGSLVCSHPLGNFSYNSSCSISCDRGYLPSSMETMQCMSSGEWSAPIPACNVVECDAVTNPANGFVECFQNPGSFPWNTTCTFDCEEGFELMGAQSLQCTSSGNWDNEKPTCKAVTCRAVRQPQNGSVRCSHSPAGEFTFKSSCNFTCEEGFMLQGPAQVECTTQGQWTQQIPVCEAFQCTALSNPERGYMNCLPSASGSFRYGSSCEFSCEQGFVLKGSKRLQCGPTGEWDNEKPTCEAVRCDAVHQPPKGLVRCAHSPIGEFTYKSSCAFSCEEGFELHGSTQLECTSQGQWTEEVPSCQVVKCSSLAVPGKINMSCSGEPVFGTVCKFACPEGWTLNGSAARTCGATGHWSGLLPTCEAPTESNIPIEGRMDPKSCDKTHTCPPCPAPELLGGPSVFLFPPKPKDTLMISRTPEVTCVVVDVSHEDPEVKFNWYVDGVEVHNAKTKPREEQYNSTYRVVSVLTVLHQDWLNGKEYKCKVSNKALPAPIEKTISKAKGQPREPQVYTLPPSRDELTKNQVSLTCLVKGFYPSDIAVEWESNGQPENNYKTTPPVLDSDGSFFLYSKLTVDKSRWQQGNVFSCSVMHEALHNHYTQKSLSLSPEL

Kd [nM]	Structure (SMILES)
2.1	CC[C@H]1C[C@@H](C(=O)NCCNC(=O)NCCNC(=O)[C@@H]2C[C@H](CC)[C@@H](O[C@@H]3O[C@@H](C)[C@@H](O)[C@@H](O)[C@@H]3O)[C@H](O[C@@H]3O[C@H](CO)[C@H](O)[C@H](O[C@@H](CC4CCCCC4)C(=O)N4CCC4)[C@H]3NC(C)=O)C2)C[C@@H](OC2O[C@H](CO)[C@H](O)[C@H](O[C@@H](CC3CCCCC3)C(=O)N3CCC3)[C@H]2NC(C)=O)[C@@H]1OC1O[C@@H](C)[C@@H](O)[C@@H](O)[C@@H]1O (some centres unmarked) [Compound 45]
5.1	CCC1CC(C(=O)NCCNC(=O)CCOCCOCCOCCOCCC(=O)NCCNC(=O)C2CC(CC)C(OC3OC(C)C(O)C(O)C3O)C(OC3OC(CO)C(O)C(OC(CC4CCCCC4)C(=O)O)C3NC(C)=O)C2)CC(OC2OC(CO)C(O)C(OC(CC3CCCCC3)C(=O)O)C2NC(C)=O)C1OC1OC(C)C(O)C(O)C1O (centres unmarked) [Compound 17]
8.8	CC[C@H]1C[C@@H](C(=O)NCCNC(=O)NCCNC(=O)[C@@H]2C[C@H](CC)[C@@H](O[C@@H]3O[C@@H](C)[C@@H](O)[C@@H](O)[C@@H]3O)[C@H](O[C@@H]3O[C@H](CO)[C@H](O)[C@H](O[C@@H](CC4CCCCC4)C(=O)O)[C@H]3NC(C)=O)C2)C[C@@H](OC2O[C@H](CO)[C@H](O)[C@H](O[C@@H](CC3CCCCC3)C(=O)O)[C@H]2NC(C)=O)[C@@H]1OC1O[C@@H](C)[C@@H](O)[C@@H](O)[C@@H]1O (some centres unmarked) [Compound 32]
3.5	CCC1CC(C(=O)NCCNC(=O)CCOCCOCCC(=O)NCCNC(=O)C2CC(CC)C(OC3OC(C)C(O)C(O)C3O)C(OC3OC(CO)C(O)C(OC(CC4CCCCC4)C(=O)O)C3NC(C)=O)C2)CC(OC2OC(CO)C(O)C(OC(CC3CCCCC3)C(=O)O)C2NC(C)=O)C1OC1OC(C)C(O)C(O)C1O (centres unmarked) [Compound 18]
6	CCC1CC(C(=O)NCCNC(=O)CCOCCOCCOCCOCCOCCOCCOCCOCCOCCOCCC(=O)NCCNC(=O)C2CC(CC)C(OC3OC(C)C(O)C(O)C3O)C(OC3OC(CO)C(O)C(OC(CC4CCCCC4)C(=O)O)C3NC(C)=O)C2)CC(OC2OC(CO)C(O)C(OC(CC3CCCCC3)C(=O)O)C2NC(C)=O)C1OC1OC(C)C(O)C(O)C1O (centres unmarked) [Compound 15]
8.6	CC[C@H]1C[C@@H](C(=O)NCCNC(=O)c2cn(CCOCCOCCOCCn3cc(C(=O)NCCNC(=O)[C@@H]4C[C@H](CC)[C@@H](O[C@@H]5O[C@@H](C)[C@@H](O)[C@@H](O)[C@@H]5O)[C@H](O[C@@H]5O[C@H](CO)[C@H](O)[C@H](O[C@@H](CC6CCCCC6)C(=O)O)[C@H]5NC(C)=O)C4)nn3)nn2)C[C@@H](OC2O[C@H](CO)[C@H](O)[C@H](O[C@@H](CC3CCCCC3)C(=O)O)[C@H]2NC(C)=O)[C@@H]1OC1O[C@@H](C)[C@@H](O)[C@@H](O)[C@@H]1O (some centres unmarked) [Compound 27]
0.8	CCC1CC(C(=O)NCCNC(=O)CCOCCOCCOCCOCCOCCOCCOCCOCCOCCOCCC(=O)NCCNC(=O)C2CC(CC)C(OC3OC(C)C(O)C(O)C3O)C(OC3OC(CO)C(O)C(OC(CC4CCCCC4)C(=O)N4CCC4)C3NC(C)=O)C2)CC(OC2OC(CO)C(O)C(OC(CC3CCCCC3)C(=O)N3CCC3)C2NC(C)=O)C1OC1OC(C)C(O)C(O)C1O (centres unmarked) [Compound 20]
3	CCC1CC(C(=O)NCCNC(=O)CCOCCOCCC(=O)NCCNC(=O)C2CC(CC)C(OC3OC(C)C(O)C(O)C3O)C(OC3OC(CO)C(O)C(OC(CC4CCCCC4)C(=O)N4CCC4)C3NC(C)=O)C2)CC(OC2OC(CO)C(O)C(OC(CC3CCCCC3)C(=O)N3CCC3)C2NC(C)=O)C1OC1OC(C)C(O)C(O)C1O (centres unmarked) [Compound 25]
2.8	CCC1CC(C(=O)NCCNC(=O)CCOCCOCCOCCOCCC(=O)NCCNC(=O)C2CC(CC)C(OC3OC(C)C(O)C(O)C3O)C(OC3OC(CO)C(O)C(OC(CC4CCCCC4)C(=O)N4CCC4)C3NC(C)=O)C2)CC(OC2OC(CO)C(O)C(OC(CC3CCCCC3)C(=O)N3CCC3)C2NC(C)=O)C1OC1OC(C)C(O)C(O)C1O (centres unmarked) [Compound 23]
6	CCC1CC(C(=O)NCCNC(=O)CCOCCOCCOCCOCCOCCOCCC(=O)NCCNC(=O)C2CC(CC)C(OC3OC(C)C(O)C(O)C3O)C(OC3OC(CO)C(O)C(OC(CC4CCCCC4)C(=O)O)C3NC(C)=O)C2)CC(OC2OC(CO)C(O)C(OC(CC3CCCCC3)C(=O)O)C2NC(C)=O)C1OC1OC(C)C(O)C(O)C1O (centres unmarked) [Compound 16]
4.7	CCC1CC(C(=O)NCCNC(=O)CCOCCOCCOCCOCCOCCOCCOCCOCCOCCOCCOCCOCCOCCOCCOCCOCCOCCOCCOCCOCCOCCC(=O)NCCNC(=O)C2CC(CC)C(OC3OC(C)C(O)C(O)C3O)C(OC3OC(CO)C(O)C(OC(CC4CCCCC4)C(=O)O)C3NC(C)=O)C2)CC(OC2OC(CO)C(O)C(OC(CC3CCCCC3)C(=O)O)C2NC(C)=O)C1OC1OC(C)C(O)C(O)C1O (centres unmarked) [Compound 13]
6.6	CCC1CC(C(=O)NCCNC(=O)CCOCCOCCOCCOCCOCCOCCOCCOCCOCCOCCOCCOCCOCCC(=O)NCCNC(=O)C2CC(CC)C(OC3OC(C)C(O)C(O)C3O)C(OC3OC(CO)C(O)C(OC(CC4CCCCC4)C(=O)O)C3NC(C)=O)C2)CC(OC2OC(CO)C(O)C(OC(CC3CCCCC3)C(=O)O)C2NC(C)=O)C1OC1OC(C)C(O)C(O)C1O (centres unmarked) [Compound 14]
10.2	CC[C@H]1C[C@@H](C(=O)NCCNC(=O)CCC(=O)NCCNC(=O)C2C[C@H](CC)[C@@H](O[C@@H]3O[C@@H](C)[C@@H](O)[C@@H](O)[C@@H]3O)[C@H](O[C@@H]3O[C@H](CO)[C@H](O)[C@H](O[C@@H](CC4CCCCC4)C(=O)O)[C@H]3NC(C)=O)C2)C[C@@H](OC2O[C@H](CO)[C@H](O)[C@H](O[C@@H](CC3CCCCC3)C(=O)O)[C@H]2NC(C)=O)[C@@H]1O[C@@H]1O[C@@H](C)[C@@H](O)[C@@H](O)[C@@H]1O (some centres unmarked) [Compound 19]
3.2	CCC1CC(C(=O)NCCNC(=O)c2cn(CCOCCOCCn3cc(C(=O)NCCNC(=O)C4CC(CC)C(OC5OC(C)C(O)C(O)C5O)C(OC5OC(CO)C(O)C(OC(CC6CCCCC6)C(=O)O)C5NC(C)=O)C4)nn3)nn2)CC(OC2OC(CO)C(O)C(OC(CC3CCCCC3)C(=O)O)C2NC(C)=O)C1OC1OC(C)C(O)C(O)C1O (centres unmarked) [Compound 28]
3.9	CCC1CC(C(=O)NCCNC(=O)c2cn(CCOCCC(=O)NCCCCC(NC(=O)CCOCCn3cc(C(=O)NCCNC(=O)C4CC(CC)C(OC5OC(C)C(O)C(O)C5O)C(OC5OC(CO)C(O)C(OC(CC6CCCCC6)C(=O)O)C5NC(C)=O)C4)nn3)C(=O)OCc3ccccc3)nn2)CC(OC2OC(CO)C(O)C(OC(CC3CCCCC3)C(=O)O)C2NC(C)=O)C1OC1OC(C)C(O)C(O)C1O (centres unmarked) [Compound 37]
2600	CCC1CC(C(=O)OC)C[C@@H](O[C@@H]2O[C@@H](CO)[C@H](O)C(O[C@@H](CC3CCCCC3)C(=O)N3CCC3)C2NC(C)=O)[C@@H]1O[C@@H]1OC(C)[C@@H](O)[C@H](O)C1O (some centres unmarked) [Compound 4]
3.3	CC[C@H]1C[C@@H](C(=O)NCCNC(=O)c2cn(CC(=O)NCCNC(=O)[C@@H]3C[C@H](CC)[C@@H](O[C@@H]4O[C@@H](C)[C@@H](O)[C@@H](O)[C@@H]4O)[C@H](O[C@@H]4O[C@H](CO)[C@H](O)[C@H](O[C@@H](CC5CCCCC5)C(=O)O)[C@H]4NC(C)=O)C3)nn2)C[C@@H](OC2O[C@H](CO)[C@H](O)[C@H](O[C@@H](CC3CCCCC3)C(=O)O)[C@H]2NC(C)=O)[C@@H]1OC1O[C@@H](C)[C@@H](O)[C@@H](O)[C@@H]1O (some centres unmarked) [Compound 31]
